From the NIST ThermoML archive (doi:10.1016/j.jct.2006.08.009)
± gives the expanded uncertainty stated by the source.

Test: mn = molality of the nth substance listed, in mol/kg
Details: 350 kPa, Liquid; for apparent molar heat capacity: Extra sensitive DSC

O[C@H]1[C@H](O)[C@@H](O)[C@H](O)[C@@H](O)[C@H]1O [cis-1,2,3,5-trans-4,6-cyclohexanehexol] + O
Details	apparent molar heat capacity [J/K/mol]	mass density [kg/m3]
278.15 K, m1 = 0.02	255 ± 75	1001.54 ± 0.19
278.15 K, m1 = 0.05	253 ± 30	1004.04 ± 0.19
278.15 K, m1 = 0.0814	256.7 ± 19	–
278.15 K, m1 = 0.1	267.7 ± 16	–
278.15 K, m1 = 0.1028	257.3 ± 16	–
278.15 K, m1 = 0.248	263.1 ± 8.5	1020.11 ± 0.22
278.15 K, m1 = 0.3973	262.1 ± 7.2	1031.74 ± 0.24
278.15 K, m1 = 0.4994	269.8 ± 6.9	1039.85 ± 0.26
283.15 K, m1 = 0.02	287 ± 72	1001.49 ± 0.19
283.15 K, m1 = 0.05	285 ± 28	1003.92 ± 0.19
283.15 K, m1 = 0.0814	292.1 ± 19	–
283.15 K, m1 = 0.1	295.6 ± 16	–
283.15 K, m1 = 0.1028	284.4 ± 15	–
283.15 K, m1 = 0.248	290.5 ± 8.2	1019.58 ± 0.22
283.15 K, m1 = 0.3973	289 ± 6.8	1030.95 ± 0.24
283.15 K, m1 = 0.4994	295.3 ± 6.5	1038.94 ± 0.26
288.15 K, m1 = 0.02	312 ± 67	1000.86 ± 0.19
288.15 K, m1 = 0.05	312 ± 27	1003.27 ± 0.19
288.15 K, m1 = 0.0814	323 ± 18	–
288.15 K, m1 = 0.1	319.7 ± 15	–
288.15 K, m1 = 0.1028	306 ± 15	–
288.15 K, m1 = 0.248	312.7 ± 7.8	1018.73 ± 0.22
288.15 K, m1 = 0.3973	311.2 ± 6.5	1029.97 ± 0.24
288.15 K, m1 = 0.4994	316.4 ± 6.2	1037.9 ± 0.25
293.15 K, m1 = 0.02	332 ± 65	–
293.15 K, m1 = 0.05	332 ± 27	–
293.15 K, m1 = 0.0814	342.6 ± 18	–
293.15 K, m1 = 0.1	339 ± 14	–
293.15 K, m1 = 0.1028	326 ± 14	–
293.15 K, m1 = 0.248	331.5 ± 7.5	–
293.15 K, m1 = 0.3973	329.9 ± 6.3	–
293.15 K, m1 = 0.4994	334.1 ± 6	–
298.15 K, m1 = 0.02	347 ± 62	998.75 ± 0.19
298.15 K, m1 = 0.05	348 ± 25	1001.13 ± 0.18
298.15 K, m1 = 0.0814	358.6 ± 17	1003.66 ± 0.18
298.15 K, m1 = 0.1	354.4 ± 14	–
298.15 K, m1 = 0.1028	343.7 ± 13	–
298.15 K, m1 = 0.248	347.5 ± 7.2	1016.29 ± 0.21
298.15 K, m1 = 0.3973	345.6 ± 6	1027.32 ± 0.23
298.15 K, m1 = 0.4994	349.1 ± 5.8	1035.14 ± 0.25
303.15 K, m1 = 0.02	362 ± 58	–
303.15 K, m1 = 0.05	362.7 ± 24	–
303.15 K, m1 = 0.0814	371.2 ± 16	–
303.15 K, m1 = 0.1	367.4 ± 13	–
303.15 K, m1 = 0.1028	358.9 ± 13	–
303.15 K, m1 = 0.248	361.3 ± 7	–
303.15 K, m1 = 0.3973	359 ± 5.8	–
303.15 K, m1 = 0.4994	361.9 ± 5.6	–
308.15 K, m1 = 0.02	374 ± 57	995.69 ± 0.19
308.15 K, m1 = 0.05	374.4 ± 23	998.05 ± 0.18
308.15 K, m1 = 0.0814	381.2 ± 15	1000.51 ± 0.18
308.15 K, m1 = 0.1	378.5 ± 12	1001.45 ± 0.33
308.15 K, m1 = 0.1028	371.6 ± 12	1001.99 ± 0.2
308.15 K, m1 = 0.248	373.2 ± 6.7	1012.97 ± 0.2
308.15 K, m1 = 0.3973	370.4 ± 5.6	1023.83 ± 0.23
308.15 K, m1 = 0.4994	373 ± 5.5	1031.55 ± 0.24
313.15 K, m1 = 0.02	386 ± 54	–
313.15 K, m1 = 0.05	385.5 ± 22	–
313.15 K, m1 = 0.0814	390.4 ± 14	–
313.15 K, m1 = 0.1	388.5 ± 12	–
313.15 K, m1 = 0.1028	382.8 ± 12	–
313.15 K, m1 = 0.248	383.6 ± 6.5	–
313.15 K, m1 = 0.3973	380.5 ± 5.6	–
313.15 K, m1 = 0.4994	382.7 ± 5.3	–
318.15 K, m1 = 0.02	395 ± 51	991.86 ± 0.2
318.15 K, m1 = 0.05	394.7 ± 21	994.19 ± 0.19
318.15 K, m1 = 0.0814	398.6 ± 14	996.61 ± 0.18
318.15 K, m1 = 0.1	397.3 ± 12	997.52 ± 0.32
318.15 K, m1 = 0.1028	392.5 ± 11	998.07 ± 0.2
318.15 K, m1 = 0.248	392.7 ± 6.4	1008.92 ± 0.2
318.15 K, m1 = 0.3973	389.4 ± 5.5	1019.64 ± 0.22
318.15 K, m1 = 0.4994	391.3 ± 5.3	1027.27 ± 0.23
323.15 K, m1 = 0.02	403 ± 50	–
